# Source: patent US12233060B2, “Inhibitors of Ataxia-Telangiectasia Mutated and Rad3-related protein kinase (ATR) for use in methods of treating cancer” (THE INSTITUTE OF CANCER RESEARCH: ROYAL CANCER HOSPITAL, priority 2016, dated 2025)
# Tests used:
# Type in all cases: cell-based, human
# [1] = tested on: HCT116 ARID1A+/+ and ARID1A−/− cells; assay: Mitotic spreads, chromosomal aberrations; details: VX-970 1 uM; p=0.0007 Student's t-test
# Description: FIG. 5. ATRi effect on cell cycle progression, chromosomal instability, DNA damage and apoptosis. A. Barchart illustrating G2/M fraction in HCT116 ARID1A^+/+ and ARID1A^−/− cells synchronized in G1/early S phase by double thymidine block and released into fresh media containing DMSO or VX-970 (500 nM). The percentage of cells in G2/M was measured by FACS following PI staining. […] Cells were stained with DAPI. A minimum of 50 anaphases were scored in 3 biological replicate experiments. *p=0.023, Student's t-test. C. Bar chart illustrating frequency of anaphase bridges in TOV21G cells exposed to VX-970 (0.5 uM) or DMSO for 8 hours prior to fixation. Experiment performed as for (B). p=0.006 Student's t-test. D. Mitotic spread images from HCT116 ARID1A^+/+ and ARID1A^−/− cells following exposure to either DMSO or VX-970 (1 uM). Scale bar represents 20 um. E. Bar chart illustrating extent of chromosomal abnormalities in HCT116 ARID1A^+/+ and ARID1A^−/− cells exposed to VX-970 (1 uM). *p<0.05, Student's t-test. F. Western blot illustrating γH2AX in HCT116 ARID1A^+/+ and ARID1A^−/− cells exposed to VX-970 (0.5 uM) for the indicated time prior to cell lyses. G. Bar chart illustrating apoptotic fraction in cells exposed to increasing concentrations of VX-970 for 24 hours. Experiment as per FIG. 3I. H. Western blot illustrating PARP cleavage in HCT116 ARID1A^+/+ and ARID1A^−/− cells exposed to VX-970. […]
# [2] = tested on: HCT116 cells; assay: VX-970 dose response after siRNA silencing of BAF components; details: HCT116, 5 days exposure; p<0.0001 ANOVA
# Description: FIG. 6. BAF complex deficiency causes sensitivity to ATR inhibition. A. Schematic of BAF complex composition in human cells. B. VX-970 dose response curves from HCT116 cells transfected with siRNA targeting ARID1B or SMARCA4. 48 hours after transfection cells were exposed to VX-970 for 5 days. Error bars represent SD from triplicate experiments. p<0.0001, ANOVA for siARID1B and siSMARCA4 vs. siCON. C. Western blots illustrating ARID1B and SMARCA4 silencing in experiment (B). D. VX-970 dose response curves from four OCCC cell lines, 3 SMARCA4 wildtype (blue; RMG1, KK and ES2) and 1 SMARCA4 mutant (red; TOV112D). E. Bar chart illustrating surviving fraction after five days VX-970 exposure in HCC1143 and He1a cells transfected with siRNA targeting either SMARCA4 or ARID1A *p<0.05 by Student's t-test compared to siCon. F. Western blot illustrating level of chromatin bound TOP2A in HCT116 cells transfected siRNA targeting ARID1A, ARID1B or SMARCA4. Cells were analysed 48 hours after transfection. G. A model for the proposed mechanism driving the sensitivity of ARID1A-deficient cells to ATRi. […]
# (§1) Short-term survival assays were performed in 384-well plates. […] Drug was added 24 h after seeding and cells were continuously exposed to the drug for five days, after which cell viability was estimated using CellTitre-Glo luminescence (Promega). […] Colonies were counted manually. […]
# [3] = tested on: ARID1A mutant vs ARID1A wild type tumor cell lines; assay: Five-day VX-970 sensitivity (AUC) in a diverse tumour cell line panel; details: five days exposure, Student's t-test
# Description: FIG. 2. In vitro ARID1A/ATR synthetic lethality. A. Chemical structure of VX-970. B. Western blot of ARID1A in human ARID1A isogenic HCT116 cells. C. Image of colonies in 6 well-plate clonogenic assay. HCT116 ARID1A isogenic (^+/+ and ^−/−) cell lines were exposed to increasing concentrations of the VE-821 (0, 0.1, 1 uM) and VX-970 (0, 0.01, 0.05 uM) for 14 days. D and E. Dose response clonogenic survival curve of HCT116 ARID1A isogenic (^+/+ and ^−/−) cell lines exposed to increasing concentrations of the VE-821 and VX-970 for 14 days. Error bars represent SD from triplicate experiments, ANOVA p-value of <0.0001. F. Area under curve (AUC) box whisker comparison plot for human tumor cell lines exposed to VX-970 for five days. ARID1A wild type tumor cell lines (n=15) were compared to ARID1A mutant cell lines (n=9). Student's t-test p=0.00594. G. Dose response clonogenic survival curve of mouse Arid1a isogenic ES cell lines. Experiment was performed as per (C). Error bars represent SD from triplicate experiments, ANOVA p value of <0.0001. H. Western blot of Arid1a protein expression in mouse ES Arid1a isogenic cells. […]
# as §1
compound,measurement,setting,value
"CNCc1ccc(-c2cc(-c3nc(-c4ccc(S(=O)(=O)C(C)C)cc4)cnc3N)on2)cc1 [VX-970, 5-[4-(Isopropylsulfonyl)phenyl]-3-(3-{4-[(methylamino)methyl]phenyl}-1,2-oxazol-5-yl)-2-pyrazinamine]",frequency of chromosomal aberrations in ARID1A−/− cells,[1],significant enhancement in the frequency of chromosomal aberrations
same,"VX-970 sensitivity after silencing of SMARCA4, ARID1B or SMARCB1",[2],enhanced sensitivity
same,sensitivity of ARID1A mutant (n=9) vs non-mutant (n=15) tumour cell lines,[3],significantly more sensitive to VX-970
